Test results from patent publication US10130601B2, “Use of a composition comprising fish oil and juice for the treatment of inflammation” (Smartfish AS, priority 2013, dated 2018).

How the values were obtained:
[1] = ALSFRS-R score (self-reported) in ALS patients; format: in vivo, human
From the text: Patients in the study self-reported the ALSFRS-R score. The Amyotrophic Lateral Sclerosis Functional Rating Scale (ALSFRS-R) is a score from 0-48 which assesses disability in patients with MND. It was developed by Cedarbaum and colleagues (Cedarbaum J M. The ALSFRS-R: a revised ALS functional rating scale that incorporates assessments of respiratory function. BDNF ALS Study Group (Phase III). J Neurol Sci 1999; 169: 13-21). There are twelve questions, some asking about daily activities and how much help a patient needs with them, and some about specific symptoms.
1 for 8 months, no. 2 for 2 months, no. 6 for 4 months, no 7 for 5 months, and no. 11 for 4 months (Table 1). […] 1: 2.6 loss to 0.4 loss, no. 6: from 0.7 loss to 1 point gain, no. 11: from 3.5 loss to 0.5 loss. Said three patients were the patients receiving the composition of the present invention.

[2] = tested on: inflammatory genes in peripheral blood mononuclear cells; assay: Inflammatory gene transcription in peripheral blood mononuclear cells of ALS patients; format: in vivo, human; conditions: PBMCs
From the text: The aim of this study was to investigate in vivo baseline inflammatory gene transcription in peripheral blood mononuclear cells and the effects of tozilizumab (Actemra®) in 11 ALS patients and also measure the disability before and after the therapy comparing the FRS-R score (Functional Rating Scale). Fiala et al., (to be published). The patients were free to take nutritional supplements. Three patients were taking the composition used in the present invention, transcription results are presented in Example 1 together with the results from the ALSFRS-R score (The Amyotrophic Lateral Sclerosis Functional Rating Scale).
In vivo baseline inflammatory gene transcription in peripheral blood mononuclear cells of 11 ALS patients and the effects of tocilizumab (Actemra®) (cytokine antagonist) infusions were studied tocilizumab inhibits global interleukin-6 (IL6) signaling, a key mechanism in chronic rheumatoid disorder.
At base line one half of the ALS subjects had strong inflammatory activation (Group 1) (8 genes up regulated >4-fold, P<0.05 vs. controls) and the other half (Group 2) had weak activation (Group 2).

For tocilizumab [Actemra], the “FRS-R change After Actemra” value ([1]; patient #1, spinal ALS, Group 1, before −2.6, treated 8 months, also took the composition) was −0.4 points/mo, the “FRS-R change After Actemra” value ([1]; patient #2, spinal ALS, Group 1, before −1.3, treated 2 months) was −0.75 points/mo and the “FRS-R change After Actemra” value ([1]; patient #6, spinal ALS, Group 2, before −0.7, treated 4 months, also took the composition) was “+1.0 points/mo”. For the same substance, the “FRS-R change After Actemra” value ([1]; patient #7, spinal ALS, Group 2, before −0.37, treated 5 months) was −2.0 points/mo, the “FRS-R change After Actemra” value ([1]; patient #11, spinal ALS, Group unknown, before −3.5, treated 4 months, also took the composition) was −0.5 points/mo and the “regulation of inflammatory genes after infusions” value ([2]; ALS patients of Group 1 (strong inflammation)) was “down regulation”. The “regulation of inflammatory genes after infusions” value ([2]; ALS patients of Group 2 (weak inflammation)) was “up regulation”.
